What was measured:
[1] = target: T1, MSI2 (full-length, wild type; recombinant MSI2) (Homo sapiens, UniProt Q96DH6); assay: microscale thermophoresis (MST); format: binding
T1 construct: full-length recombinant MSI2, purified; His6-tagged in EMSA (MSI2-His6)

[2] = target: T1, MSI2 (full-length, wild type; recombinant MSI2); assay: ligand binding curve, probably MST (method for gossypol not stated explicitly)

T1 sequence (Q96DH6 whole entry): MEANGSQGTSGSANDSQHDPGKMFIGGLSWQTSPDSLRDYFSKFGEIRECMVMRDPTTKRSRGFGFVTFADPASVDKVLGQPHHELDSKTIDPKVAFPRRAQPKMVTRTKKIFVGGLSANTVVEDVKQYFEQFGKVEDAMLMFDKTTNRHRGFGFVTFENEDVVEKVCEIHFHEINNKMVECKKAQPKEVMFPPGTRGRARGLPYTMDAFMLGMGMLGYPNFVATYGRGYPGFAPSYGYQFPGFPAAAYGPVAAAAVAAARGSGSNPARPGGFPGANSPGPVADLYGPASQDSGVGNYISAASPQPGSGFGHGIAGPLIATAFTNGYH

Kd [1] | SMILES | Kd [2]
1.2 µM | CC(C)(Sc1ccc(CCN(CCCCC2CCCCC2)C(=O)NC2CCCCC2)cc1)C(=O)O [GW7647] | 
 | Cc1cc2c(C(C)C)c(O)c(O)c(C=O)c2c(O)c1-c1c(C)cc2c(C(C)C)c(O)c(O)c(C=O)c2c1O [Gossypol] | 35 µM

From paper PMC10147607, “MSI2 promotes translation of multiple IRES-containing oncogenes and virus to induce self-renewal of tumor initiating stem-like cells” (Cell Death Discovery, 2023)
